From paper PMC7114321 (Antiviral Research, 2005)
Converted amounts (≈) assume the structure as drawn.

Key:
[1] = system: Vero cells
[2] = system: Sindbis virus; conditions: cited from earlier work
[3] = in vitro; conditions: African green monkey, CC50 of cell death

C=CCC(=NOS(=O)(=O)O)S[C@@H]1O[C@H](CO)[C@@H](O)[C@H](O)[C@H]1O (stereo in doubt) [Sinigrin]
CC50 [1]: > 10000 µM
CC50 of cell death [1]: >5000 (>10,000 μM) μg/ml

COc1ccc([C@@H]2CC(=O)c3c(O)cc(O)cc3O2)cc1O [Hesperetin]
IC50, inhibitory activity on Sindbis virus infection [2]: 20.5 µg/mL (≈ 0.0678 mM)
IC50 ([2]; read-out: IC50, inhibitory activity on Sindbis virus infection): ~68 µM

O=C1/C(=C2\Nc3ccccc3C2=O)Nc2ccccc21 [Indigo]
CC50 [3]: 917 µg/mL (≈ 3.5 mM)
